What was measured:
Type in all cases: cell-based
T2R07 (TAS2R07) = target: T1, T2R07 (TAS2R07) (Homo sapiens, UniProt Q9NYW3); assay: FLIPR calcium assay, block of bitter agonist response, T2R07; details: unsaturated fatty acid concentration of 200 µM, cells stimulated with known bitter agonist
T1 construct: expressed in transfected cells; host or cells: cells expressing a promiscuous G protein (e.g., G16g44)
T1 sequence (Q9NYW3 1-318): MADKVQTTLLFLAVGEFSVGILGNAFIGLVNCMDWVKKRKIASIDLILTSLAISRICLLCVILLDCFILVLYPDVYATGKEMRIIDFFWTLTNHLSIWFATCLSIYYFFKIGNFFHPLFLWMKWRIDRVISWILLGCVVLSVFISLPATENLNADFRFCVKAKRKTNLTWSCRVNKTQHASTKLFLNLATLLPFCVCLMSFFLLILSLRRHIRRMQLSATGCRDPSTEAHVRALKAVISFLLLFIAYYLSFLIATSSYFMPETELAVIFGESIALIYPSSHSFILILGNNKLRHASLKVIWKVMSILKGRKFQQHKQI
Experimental: (§1) Cells expressing a promiscuous […] (e.g., G16g44) were transfected with vectors encoding 18 functional bitter receptor cDNAs, with one receptor per transfection. The cells were transfected directly in 384-well format high-density plates and incubated for 28 hours. Later, cells were loaded with the Ca-specific dye Fluo4-AM. After an incubation of 60 minutes, excess dye is washed off, and cells are stimulated with a known bitter agonist for each receptor and various unsaturated fatty acids. Changes in intracellular fluorescence are recorded using a FLIPR instrument. Bitter antagonists and corresponding receptors are identified based on percentage inhibition of agonist's activity on a given receptor.
(§2) The above protocol was carried out using 16 different unsaturated fatty acids. A particular T2R receptor was identified as being antagonized by a particular unsaturated fatty acid if it triggered a >25% block of agonist's cellular response at 200 μM concentration of unsaturated fatty acid. […] Table 2 indicates the sixteen (16) compounds tested by their compound number from Table 1 above. The 18 bitter taste receptors screened are the human bitter taste receptors we named. […]

T2R54 (TAS2R39) = target: T2, T2R54 (TAS2R39 (Homo sapiens, UniProt P59534)); assay: FLIPR calcium assay, block of bitter agonist response, T2R54; details: unsaturated fatty acid concentration of 200 µM, cells stimulated with known bitter agonist
T2 construct: expressed in transfected cells; host or cells: cells expressing a promiscuous G protein (e.g., G16g44)
T2 sequence (P59534 1-338): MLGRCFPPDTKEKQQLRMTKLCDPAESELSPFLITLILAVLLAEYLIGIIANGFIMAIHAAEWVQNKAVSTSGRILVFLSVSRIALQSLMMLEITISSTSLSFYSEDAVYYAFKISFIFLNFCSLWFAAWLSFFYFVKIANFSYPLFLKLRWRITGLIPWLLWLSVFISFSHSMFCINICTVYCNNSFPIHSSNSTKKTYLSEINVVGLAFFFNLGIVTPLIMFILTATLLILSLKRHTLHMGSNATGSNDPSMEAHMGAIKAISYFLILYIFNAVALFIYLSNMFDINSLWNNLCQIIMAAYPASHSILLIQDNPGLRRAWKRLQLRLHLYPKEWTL
Experimental: as §1
(§3) The above protocol was carried out using 16 different unsaturated fatty acids. A particular T2R receptor was identified as being antagonized by a particular unsaturated fatty acid if it triggered a >25% block of agonist's cellular response at 200 μM concentration of unsaturated fatty acid. […] Table 2 indicates the sixteen (16) compounds tested by their compound number from Table 1 above. The 18 bitter taste receptors screened are the human bitter taste receptors we named. T2R01 (TAS2R01), T2R03 (TAS2R03), T2R04 (TAS2R04), T2R07 (TAS2R07), T2R08 (TAS2R08), T2R09 (TAS2R09), T2R10 (TAS2R10), T2R13 (TAS2R13), T2R14 (TAS2R14), T2R16 (TAS2R16), T2R54 (TAS2R39, T2R61 (TAS2R43), T2R63 (TA2R20), T2R64 (TAS2R31), T2R65 (TAS2R19), T2R67 (TAS2R50), T2R71 (TAS2R41), and T2R75 (TAS2R46). The corresponding IUPHAR nomenclature for each receptor is given in parenthesis. In Table 2, these receptors are identified by the last two digits. For example, T2R01 is indicated as 01. Table 2 reports the percentage block of cellular response over baseline at an unsaturated fatty acid concentration of 200 µM.

T2R61 (TAS2R43) = target: T3, T2R61 (TAS2R43) (Homo sapiens, UniProt P59537); assay: FLIPR calcium assay, block of bitter agonist response, T2R61; details: unsaturated fatty acid concentration of 200 µM, cells stimulated with known bitter agonist
T3 construct: expressed in transfected cells; host or cells: cells expressing a promiscuous G protein (e.g., G16g44)
T3 sequence (P59537 1-309): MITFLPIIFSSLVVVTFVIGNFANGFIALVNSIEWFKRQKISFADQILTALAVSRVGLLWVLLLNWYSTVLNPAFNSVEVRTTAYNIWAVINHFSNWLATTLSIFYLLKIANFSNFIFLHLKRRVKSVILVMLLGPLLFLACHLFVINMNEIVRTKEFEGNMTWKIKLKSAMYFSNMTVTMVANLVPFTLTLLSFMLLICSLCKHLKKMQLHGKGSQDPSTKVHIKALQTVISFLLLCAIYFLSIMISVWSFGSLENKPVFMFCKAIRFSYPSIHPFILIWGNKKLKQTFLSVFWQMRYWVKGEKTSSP
Experimental: as §1, §2

T2R10 (TAS2R10) = target: T4, T2R10 (TAS2R10) (Homo sapiens, UniProt Q9NYW0); assay: FLIPR calcium assay, block of bitter agonist response, T2R10; details: unsaturated fatty acid concentration of 200 µM, cells stimulated with known bitter agonist, read-out: percentage block of cellular response over baseline, 10
T4 construct: expressed in transfected cells; host or cells: cells expressing a promiscuous G protein (e.g., G16g44)
T4 sequence (Q9NYW0 1-307): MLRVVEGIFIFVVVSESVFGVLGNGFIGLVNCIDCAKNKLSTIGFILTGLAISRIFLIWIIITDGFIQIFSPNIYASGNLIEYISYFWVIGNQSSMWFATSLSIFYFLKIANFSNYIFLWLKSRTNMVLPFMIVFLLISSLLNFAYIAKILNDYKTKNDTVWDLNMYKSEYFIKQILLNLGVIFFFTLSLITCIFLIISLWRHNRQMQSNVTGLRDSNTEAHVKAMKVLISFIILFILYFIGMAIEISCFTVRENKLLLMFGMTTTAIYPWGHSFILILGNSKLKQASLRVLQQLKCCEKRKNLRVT
Experimental: as §1, §3

T2R65 (TAS2R19) = target: T5, T2R65 (TAS2R19) (Homo sapiens, UniProt P59542); assay: FLIPR calcium assay, block of bitter agonist response, T2R65; details: unsaturated fatty acid concentration of 200 µM, cells stimulated with known bitter agonist
T5 construct: expressed in transfected cells; host or cells: cells expressing a promiscuous G protein (e.g., G16g44)
T5 sequence (P59542 1-299): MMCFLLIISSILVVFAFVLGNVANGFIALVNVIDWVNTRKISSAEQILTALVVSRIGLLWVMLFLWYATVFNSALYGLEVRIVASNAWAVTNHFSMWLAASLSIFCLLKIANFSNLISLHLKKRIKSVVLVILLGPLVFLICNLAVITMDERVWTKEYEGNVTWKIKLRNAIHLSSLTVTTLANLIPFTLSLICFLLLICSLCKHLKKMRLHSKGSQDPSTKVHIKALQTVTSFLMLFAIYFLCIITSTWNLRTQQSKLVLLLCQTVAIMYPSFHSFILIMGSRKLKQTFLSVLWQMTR
Experimental: as §1, §2

CC(C)=CCC/C(C)=C/C(=O)O [Compound 129]
percentage block of cellular response over baseline, 07 (T2R07 (TAS2R07)): >90%
percentage block of cellular response over baseline, 54 (T2R54 (TAS2R39)): 90%
percentage block of cellular response over baseline, 61 (T2R61 (TAS2R43)): >90%
inhibition at 200 µM (T2R10 (TAS2R10)): > 65%
percentage block of cellular response over baseline, 65 (T2R65 (TAS2R19)): >35%

— patent publication US20250344734A1, “UNSATURATED FATTY ACIDS AND THEIR USE TO MODIFY TASTE” (Firmenich Incorporated, priority 2022, published 2025)
